Several values for one entry are separate records, joined by “and”; a condition that tells them apart may be missing. Identical values can stand only once.
Experiments:
[1] = target: rat brain α7 receptors (Rattus norvegicus, UniProt Q05941); assay: BTX binding, rat hippocampal membranes
Description: AZD0328 is a reversible, high affinity ligand of human recombinant and rat brain α7 receptors. […]. Systemic administration of AZD0328 occupied rat brain α7 receptors and increased the number of α7 receptor binding sites. Very low doses of AZD0328 (0.00048-0.0016 mg/kg) improved spatial working memory performance in rhesus monkeys. The pharmacological profile of AZD0328 illustrates its potential utility to improve cognitive function by activating the α7 receptor.
(§1) . In Xenopus oocytes injected with human, recombinant α7 receptor mRNA, AZD0328 activates whole cell currents (Table 2). […] In acutely dissociated rat hippocampal interneurons, AZD0328 elicits rapidly activated, desensitizing whole-cell current (Table 1), consistent with the known properties of rat neuronal α7 receptors. […] AZD0328 modulates synaptic function, consistent with the well-known role of α7 receptors as heteroreceptor modulators of glutamatergic and GABAergic synaptic function.

[2] = tested on: mice; assay: Novel Object Recognition (NOR); assay type: in vivo, mouse; conditions: 0.00178 mg/kg sc
From the text: We have now discovered that much lower doses of AZD0328 that provide much lower plasma concentrations, can improve performance of cognitive tasks in mice, rats, and monkeys. AZD0328 at low doses increased novel object recognition in mice. In this procedure, mice were habituated to a chamber in which they were then allowed to “sample” two objects before being removed from the chamber. After a delay during which one of the objects was replaced with a novel object, the mice were returned to the chamber for testing. If the delay was brief, mice spent more time exploring the novel object than the familiar object, which is thought to indicate that the mice “recognize” […], a measure of episodic memory.
AZD0328 increased novel object recognition in mice (Table 2). In this procedure, mice were habituated to a chamber in which they were then allowed to “sample” two objects before being removed from the chamber. After a delay during which one of the objects was replaced with a novel object, the mice were returned to the chamber for testing. If the delay was brief, mice spent more time exploring the novel object than the familiar object, which is thought to indicate that the mice “recognize” that the novel object is novel.

[3] = Single dose PK/TK, minipig; assay type: in vivo
From the text: This section provides a summary of the pharmacokinetic and metabolism properties of AZD0328 derived from in vivo studies. […] The derived PK/TK parameters from these studies are presented in Table 4 for single dose studies (DMR4, 0619LR, 20030191PCR, DMO16, DMB10, DMW12, 50190, 0190DD and 03.330/1), and are presented in Table 5 multiple dose PK/TK studies (DMR4, 0612AR, DMB15, 50190, 0190DD and 0295AD).

[4] = target: T1, hERG-encoded potassium channel (Homo sapiens, UniProt Q12809); assay: hERG patch clamp; assay type: cell-based; conditions: HEK cells, read-out: IC50, block of hERG tail current (estimated)
T1 construct: expressed in transfected cells; host or cells: HEK cells
T1 sequence (Q12809 whole entry): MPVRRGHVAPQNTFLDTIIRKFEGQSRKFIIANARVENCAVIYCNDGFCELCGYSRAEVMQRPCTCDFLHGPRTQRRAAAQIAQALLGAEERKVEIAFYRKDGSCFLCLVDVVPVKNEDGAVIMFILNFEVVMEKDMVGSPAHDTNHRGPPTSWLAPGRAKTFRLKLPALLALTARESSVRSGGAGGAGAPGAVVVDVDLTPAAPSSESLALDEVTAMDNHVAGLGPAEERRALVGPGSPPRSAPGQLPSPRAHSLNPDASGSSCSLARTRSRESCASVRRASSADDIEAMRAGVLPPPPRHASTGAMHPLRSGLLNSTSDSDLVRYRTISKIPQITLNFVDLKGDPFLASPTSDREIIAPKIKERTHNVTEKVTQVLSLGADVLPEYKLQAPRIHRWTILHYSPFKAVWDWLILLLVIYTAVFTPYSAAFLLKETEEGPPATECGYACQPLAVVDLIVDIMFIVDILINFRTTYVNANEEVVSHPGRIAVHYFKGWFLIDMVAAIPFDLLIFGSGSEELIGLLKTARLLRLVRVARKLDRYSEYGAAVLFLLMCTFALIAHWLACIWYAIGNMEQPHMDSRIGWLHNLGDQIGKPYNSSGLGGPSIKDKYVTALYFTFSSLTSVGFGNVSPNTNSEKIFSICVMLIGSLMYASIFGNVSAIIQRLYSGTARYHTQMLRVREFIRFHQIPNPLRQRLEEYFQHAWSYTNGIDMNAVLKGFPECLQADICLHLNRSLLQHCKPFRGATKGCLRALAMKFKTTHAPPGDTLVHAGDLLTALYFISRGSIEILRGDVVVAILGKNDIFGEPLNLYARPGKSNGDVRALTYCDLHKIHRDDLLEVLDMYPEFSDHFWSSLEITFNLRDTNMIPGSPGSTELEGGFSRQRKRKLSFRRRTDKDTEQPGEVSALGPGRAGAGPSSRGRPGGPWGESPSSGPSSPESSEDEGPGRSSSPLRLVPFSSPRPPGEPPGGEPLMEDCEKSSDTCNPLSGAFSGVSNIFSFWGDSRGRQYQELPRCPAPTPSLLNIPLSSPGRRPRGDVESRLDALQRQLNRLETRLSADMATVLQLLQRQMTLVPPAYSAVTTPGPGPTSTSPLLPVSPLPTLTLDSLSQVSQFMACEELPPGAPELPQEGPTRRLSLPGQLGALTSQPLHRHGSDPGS
Description: A study was performed to evaluate the effects of AZD0328 on the α-subunit of the voltage-dependent potassium channel encoded by the human ether-a-go-go-related gene (hERG), using the patch clamp technique (Table 3).

[5] = target: T2, human recombinant 5-HT3A/B receptors (Homo sapiens, UniProt O95264+P46098); assay: Functional assays at recombinant human receptors; assay type: biochemical; conditions: recombinant human receptors in vitro
T2 construct: expressed in transfected cells
T2 sequence (P46098 24-478): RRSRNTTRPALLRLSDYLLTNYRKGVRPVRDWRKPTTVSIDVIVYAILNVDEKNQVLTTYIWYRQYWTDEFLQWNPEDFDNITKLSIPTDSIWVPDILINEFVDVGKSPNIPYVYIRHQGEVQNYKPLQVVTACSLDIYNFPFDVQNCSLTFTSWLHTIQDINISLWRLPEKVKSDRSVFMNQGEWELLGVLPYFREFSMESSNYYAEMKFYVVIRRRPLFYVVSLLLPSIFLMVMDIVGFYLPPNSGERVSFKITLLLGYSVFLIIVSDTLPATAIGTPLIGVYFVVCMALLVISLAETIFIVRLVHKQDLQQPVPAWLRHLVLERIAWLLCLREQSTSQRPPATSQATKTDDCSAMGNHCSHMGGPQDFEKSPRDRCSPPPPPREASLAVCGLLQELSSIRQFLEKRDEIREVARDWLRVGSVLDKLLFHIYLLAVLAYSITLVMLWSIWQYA
T2 sequence (O95264 22-441): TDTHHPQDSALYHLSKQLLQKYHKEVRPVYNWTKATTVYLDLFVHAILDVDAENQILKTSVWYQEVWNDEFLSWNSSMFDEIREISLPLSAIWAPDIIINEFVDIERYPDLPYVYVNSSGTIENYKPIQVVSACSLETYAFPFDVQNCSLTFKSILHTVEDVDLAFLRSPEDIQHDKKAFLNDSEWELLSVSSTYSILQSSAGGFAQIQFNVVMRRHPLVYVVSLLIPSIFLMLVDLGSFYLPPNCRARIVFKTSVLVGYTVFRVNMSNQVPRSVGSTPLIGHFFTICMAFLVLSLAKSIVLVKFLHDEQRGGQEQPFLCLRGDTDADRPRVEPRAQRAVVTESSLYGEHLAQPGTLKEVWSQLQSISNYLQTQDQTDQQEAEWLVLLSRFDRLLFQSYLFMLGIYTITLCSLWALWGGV

[6] = target: T3, rat recombinant α7 receptor (Rattus norvegicus, UniProt Q05941); assay: Whole cell current, oocytes; assay type: cell-based; conditions: oocyte
T3 construct: expressed in transfected cells; host or cells: Xenopus oocytes
T3 sequence (Q05941 23-502): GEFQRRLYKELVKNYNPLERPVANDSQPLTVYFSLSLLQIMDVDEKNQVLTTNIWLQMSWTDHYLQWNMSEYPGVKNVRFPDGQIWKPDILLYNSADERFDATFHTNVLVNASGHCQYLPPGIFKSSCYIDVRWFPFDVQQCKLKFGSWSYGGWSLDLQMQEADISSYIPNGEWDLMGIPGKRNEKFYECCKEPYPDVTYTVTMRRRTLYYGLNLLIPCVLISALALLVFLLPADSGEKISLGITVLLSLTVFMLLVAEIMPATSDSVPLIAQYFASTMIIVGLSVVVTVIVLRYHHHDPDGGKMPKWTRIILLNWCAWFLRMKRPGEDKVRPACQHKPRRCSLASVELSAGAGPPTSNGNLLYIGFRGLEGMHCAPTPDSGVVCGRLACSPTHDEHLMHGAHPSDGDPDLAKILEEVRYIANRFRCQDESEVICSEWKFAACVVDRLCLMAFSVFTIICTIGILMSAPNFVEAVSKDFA
From the text: as §1, with “In membranes prepared either from cultured, human recombinant α7 receptor-expressing, human embryonic kidney cells α7-HEK) or from rat brain hippocampus, AZD0328 competed with binding of an iodinated form of the high-affinity, selective α7 receptor antagonist snake toxin, [^125I]-α-bungarotoxin (BTX) (Table 1). In” for “. In”

[7] = target: T4, mouse recombinant α7 receptor (Mus musculus, UniProt P49582); assay: Whole cell current, oocytes; assay type: cell-based; conditions: oocyte
T4 construct: expressed in transfected cells; host or cells: Xenopus oocytes
T4 sequence (P49582 23-502): as the sequence (Q05941 23-502) above, with A402T counted along it
From the text: as §1, with “In membranes prepared either from cultured, human recombinant α7 receptor-expressing, human embryonic kidney cells α7-HEK) or from rat brain hippocampus, AZD0328 competed with binding of an iodinated form of the high-affinity, selective α7 receptor antagonist snake toxin, [^125I]-α-bungarotoxin (BTX) (Table 1). In” for “. In”

[8] = both sexes, Gottingen, in vivo, minipig 2M+2F, 50190, single oral 73.1 mg/kg (338 μmol/kg), capsules, fasted
[9] = both sexes, Gottingen, in vivo, minipig 2M+2F, 50190, single oral 563 mg/kg (2602 μmol/kg), capsules, fasted
[10] = male, Gottingen, in vivo, minipig 3M, DMW12, single oral 16.9 mg/kg (78.1 μmol/kg), solution, fed

rat brain α7 receptors, sequence (Q05941 23-502): as the sequence (Q05941 23-502) above

c1cnc2c(c1)C[C@@]1(CN3CCC1CC3)O2 [AZD0328, (R)-Spiro[1-azabicyclo[2.2.2]octane-3,2′(3′H)-furo[2,3-b]pyridine]]
Ki [1]: 4.7 nM
time of administration prior to object sampling at which object recognition index was still significantly increased [2]: ≤ 48 h
AUC [3, 8]: 3140 ng·h/mL and 14.5 µM·h
Cmax [3, 8]: 379 ng/mL and 1.75 µM
Tmax [3, 8]: 2 to 6 h
AUC [3, 9]: 18200 ng·h/mL and 84.2 µM·h
Cmax [3, 9]: 1910 ng/mL and 8.84 µM
Tmax [3, 9]: 12 h
clearance ([3]; male, Gottingen, in vivo, minipig 3M, DMW12, iv 8.5 mg/kg (39.3 μmol/kg)): 35.5 mL/min/kg
half-life ([3]; male, Gottingen, in vivo, minipig 3M, DMW12, iv 8.5 mg/kg (39.3 μmol/kg), read-out: T½ (converted)): 3.71 ± 1.72 h
Vd ([3]; male, Gottingen, in vivo, minipig 3M, DMW12, iv 8.5 mg/kg (39.3 μmol/kg), read-out: Vss): 11.1 ± 4.2 L/kg
AUC [3, 10]: 404 ng·h/mL and 1.87 µM·h
Cmax [3, 10]: 81.3 ng/mL and 376 nM
Tmax [3, 10]: 1 to 4 h
F ([3]; minipig 3M, DMW12, oral 16.9 mg/kg vs iv 8.5 mg/kg): 5.19 ± 2.22%
IC50 [4]: 32000 nM
functional potency at α7 versus 5-HT3A/B receptors [5]: equipotent
EC50 ([6]; rat recombinant α7): 1100 nM
Emax ([6]; rat recombinant α7, 10 μM, read-out: Maximum response, whole cell current): 87%
EC50 ([7]; mouse recombinant α7): 1000 nM
Emax ([7]; mouse recombinant α7, 10 μM, read-out: Maximum response, whole cell current): 83%
